The supplement of paper PMC10331698
± gives the standard deviation of the averaged measurements.

Assays:
Assay in all cases: level (log10 ratio to DMSO vehicle control); higher = higher biomarker level / cell amount than vehicle control
[1] = compound: C=C(C)C(=O)OCCC(F)(F)C(F)(F)C(F)(F)C(F)(F)C(F)(F)C(F)(F)F [6:2 Fluorotelomer methacrylate]; conditions: in DMSO
Method: (§1)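 BioMAP Diversity Plus panel of 12 human primary cell co-culture systems (3C, 4H, LPS, SAg, BT, BF4T, BE3C, CASM3C, HDF3CGF, KF3CT, MyoF, Mphg). Compounds were added 1 h before stimulation and left for 24 h (MyoF 48 h; BT 72 h for soluble read-outs or 6 d for IgG). Biomarkers were read by ELISA, cytotoxicity by SRB, PBMC viability and proliferation by Alamar Blue. Each well value was divided by the mean of 8 DMSO control wells on the same plate and log10 transformed; duplicate blinded samples were tested at 4 concentrations.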

[2] = compound: C=CC(=O)OCC(F)(F)C(F)(F)C(F)(F)COC(=O)C=C [1H,1H,5H,5H-Perfluoro-1,5-pentanediol diacrylate]; conditions: 6700 nM; in DMSO
Method: as §1

[3] = compound: COC(=O)C(F)(F)C(F)(F)OC(F)(C(F)(F)F)C(F)(F)OC(F)=C(F)F [Methyl perfluoro(3-(1-ethenyloxypropan-2-yloxy)propanoate)]; conditions: in DMSO
Method: as §1

[4] = compound: FC(F)(F)C(F)(F)C(F)(F)C(F)(F)C(F)(F)C(F)(F)C(F)(F)I [1-Iodopentadecafluoroheptane]; conditions: in DMSO
Method: as §1

[5] = compound: FC(F)(F)C(F)(F)C(F)(F)C(F)(F)C(F)(F)C(F)(F)CC1CO1 [3-(Perfluorohexyl)-1,2-epoxypropane]; conditions: in DMSO
Method: as §1

[6] = compound: FC(F)(F)C(F)(F)C(F)(F)CC1CO1 [1H,1H-Heptafluorobutyl epoxide]; conditions: in DMSO
Method: as §1

[7] = compound: FC(F)(F)C(F)(F)C(F)(F)CI [Heptafluorobutyl iodide]; conditions: in DMSO
Method: as §1

[8] = compound: FC(F)(F)C(F)(F)CNCC(F)(F)C(F)(F)F [Bis(1H,1H-perfluoropropyl)amine]; conditions: in DMSO
Method: as §1

[9] = compound: NC(=O)C(F)(F)C(F)(F)C(F)(F)C(F)(F)C(N)=O [Octafluoroadipamide]; conditions: in DMSO
Method: as §1

[10] = compound: NC(=O)C(F)(F)C(F)(F)C(F)(F)C(F)(F)F [Nonafluoropentanamide]; conditions: in DMSO
Method: as §1

[11] = compound: NC(=O)C(F)(F)C(F)(F)C(F)(F)C(F)F; conditions: in DMSO
Method: as §1

[12] = compound: NS(=O)(=O)C(F)(F)C(F)(F)C(F)(F)C(F)(F)C(F)(F)C(F)(F)F [Perfluorohexanesulfonamide]; conditions: in DMSO
Method: as §1

[13] = compound: O=C(O)C(F)(F)C(F)(F)C(F)(F)C(F)(F)C(F)(F)C(F)(F)C(F)(F)C(F)(F)C(F)(F)C(F)F [11-H-Perfluoroundecanoic acid]; conditions: in DMSO
Method: as §1

[14] = compound: O=C(O)C=CC(F)(C(F)(F)F)C(F)(F)F [3-(Perfluoroisopropyl)-2-propenoic acid]; conditions: in DMSO
Method: as §1

[15] = compound: O=S(=O)(Cl)C(F)(F)C(F)(F)C(F)(F)C(F)(F)C(F)(F)C(F)(F)C(F)(F)C(F)(F)F [Perfluoro-1-octanesulfonyl chloride]; conditions: in DMSO
Method: as §1

[16] = compound: O=S(=O)(F)C(F)(F)C(F)(F)C(F)(F)C(F)(F)C(F)(F)C(F)(F)C(F)(F)C(F)(F)F [Perfluorooctanesulfonyl fluoride]; conditions: in DMSO
Method: as §1

[17] = compound: O=S(=O)(O)C(F)(F)C(F)(F)C(F)(F)C(F)(F)C(F)(F)C(F)(F)C(F)(F)C(F)(F)C(F)(F)C(F)(F)F [Sodium perfluorodecanesulfonate]; conditions: in DMSO
Method: as §1

[18] = compound: O=S(=O)(O)CCC(F)(F)C(F)(F)C(F)(F)C(F)(F)C(F)(F)C(F)(F)F [6:2 Fluorotelomer sulfonic acid]; conditions: in DMSO
Method: as §1

[19] = compound: OCC(F)(F)C(F)(F)C(F)(F)CO [Hexafluoroamylene glycol]; conditions: in DMSO
Method: as §1

3C:Proliferation
level (log10) ([1]; 6700 nM): 0.0005 ± 0.028 | level (log10) ([1]; 20000 nM): -0.003 ± 0.089 | level (log10) ([1]; 60000 nM): -0.013 ± 0.0085 | level (log10) [2]: -0.379 ± 0.12 | level (log10) ([3]; 6700 nM): -0.056 ± 0.048 | level (log10) ([3]; 20000 nM): -0.111 ± 0.0092 | level (log10) ([4]; 6700 nM): 0.0035 ± 0.013 | level (log10) ([4]; 20000 nM): -0.0125 ± 0.0078 | level (log10) ([5]; 6700 nM): -0.013 ± 0.0042 | level (log10) ([5]; 20000 nM): -0.0055 ± 0.054 | level (log10) ([5]; 60000 nM): -0.0375 ± 0.035 | level (log10) ([6]; 6700 nM): -0.0245 ± 0.028 | level (log10) ([6]; 20000 nM): -0.015 ± 0.033 | level (log10) ([6]; 60000 nM): 0.004 ± 0.035 | level (log10) ([7]; 6700 nM): -0.0165 ± 0.00071 | level (log10) ([7]; 20000 nM): 0.005 ± 0.023 | level (log10) ([7]; 60000 nM): 0.014 ± 0.041 | level (log10) ([8]; 6700 nM): 0.008 ± 0.023 | level (log10) ([8]; 20000 nM): 0.0205 ± 0.00071 | level (log10) ([8]; 60000 nM): -0.0025 ± 0.018 | level (log10) ([9]; 6700 nM): -0.0265 ± 0.036 | level (log10) ([9]; 20000 nM): 0.0065 ± 0.067 | level (log10) ([9]; 60000 nM): -0.0085 ± 0.063 | level (log10) ([10]; 6700 nM): 0.028 ± 0.018 | level (log10) ([10]; 20000 nM): 0.016 ± 0.03 | level (log10) ([10]; 60000 nM): -0.0145 ± 0.021 | level (log10) ([11]; 6700 nM): -0.0385 ± 0.049 | level (log10) ([11]; 20000 nM): -0.038 ± 0.061 | level (log10) ([11]; 60000 nM): -0.03 ± 0.031 | level (log10) ([12]; 6700 nM): -0.0605 ± 0.011 | level (log10) ([12]; 20000 nM): -0.0635 ± 0.069 | level (log10) ([12]; 60000 nM): -0.334 ± 0.024 | level (log10) ([13]; 6700 nM): -0.0185 ± 0.074 | level (log10) ([13]; 20000 nM): 0.0405 ± 0.016 | level (log10) ([14]; 6700 nM): -0.0185 ± 0.09 | level (log10) ([14]; 20000 nM): -0.002 ± 0.037 | level (log10) ([14]; 60000 nM): -0.0145 ± 0.049 | level (log10) ([15]; 6700 nM): -0.003 ± 0.0042 | level (log10) ([15]; 20000 nM): 0.009 ± 0.03 | level (log10) ([15]; 60000 nM): -0.112 ± 0.037 | level (log10) ([16]; 6700 nM): 0.0125 ± 0.0092 | level (log10) ([16]; 20000 nM): 0.0095 ± 0.016 | level (log10) ([16]; 60000 nM): 0.0055 ± 0.046 | level (log10) ([17]; 1500 nM): -0.0815 ± 0.013 | level (log10) ([17]; 4400 nM): -0.056 ± 0.017 | level (log10) ([17]; 13000 nM): -0.038 ± 0.02 | level (log10) ([17]; 40000 nM): -0.229 ± 0.011 | level (log10) ([18]; 6700 nM): 0.0055 ± 0.0021 | level (log10) ([18]; 20000 nM): 0.012 ± 0.027 | level (log10) ([18]; 60000 nM): 0.0305 ± 0.039 | level (log10) ([19]; 6700 nM): -0.0035 ± 0.028 | level (log10) ([19]; 20000 nM): 0.0075 ± 0.067 | level (log10) ([19]; 60000 nM): 0.019 ± 0.03
